Source: US11998539B2, “Substituted aminoquinolones as DGKalpha inhibitors for immune activation” (Bayer Aktiengesellschaft, priority 2019, dated 2024)

Target: DGKα (Homo sapiens (Human), UniProt P23743)
Test: Human DGKα kinase activity inhibition assay (ADP-Glo)
Format: biochemical
Conditions: recombinant full-length human DGKα, 55 μM ATP, 7 μM 1,2-dioleoyl-sn-glycerol, read-out: IC50 values of examples in in vitro human DGKa kinase activity inhibition assays
Summary of the method: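 Recombinant full-length human DGKα (C-terminal FLAG, from insect cells) phosphorylated 1,2-dioleoyl-sn-glycerol presented in octyl-glucopyranoside micelles. ADP formed was quantified by ADP-Glo luminescence. Compounds were added from 100-fold DMSO stocks.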

Chain of DGKα (P23743 other isoform, or with tags, fused parts or gaps): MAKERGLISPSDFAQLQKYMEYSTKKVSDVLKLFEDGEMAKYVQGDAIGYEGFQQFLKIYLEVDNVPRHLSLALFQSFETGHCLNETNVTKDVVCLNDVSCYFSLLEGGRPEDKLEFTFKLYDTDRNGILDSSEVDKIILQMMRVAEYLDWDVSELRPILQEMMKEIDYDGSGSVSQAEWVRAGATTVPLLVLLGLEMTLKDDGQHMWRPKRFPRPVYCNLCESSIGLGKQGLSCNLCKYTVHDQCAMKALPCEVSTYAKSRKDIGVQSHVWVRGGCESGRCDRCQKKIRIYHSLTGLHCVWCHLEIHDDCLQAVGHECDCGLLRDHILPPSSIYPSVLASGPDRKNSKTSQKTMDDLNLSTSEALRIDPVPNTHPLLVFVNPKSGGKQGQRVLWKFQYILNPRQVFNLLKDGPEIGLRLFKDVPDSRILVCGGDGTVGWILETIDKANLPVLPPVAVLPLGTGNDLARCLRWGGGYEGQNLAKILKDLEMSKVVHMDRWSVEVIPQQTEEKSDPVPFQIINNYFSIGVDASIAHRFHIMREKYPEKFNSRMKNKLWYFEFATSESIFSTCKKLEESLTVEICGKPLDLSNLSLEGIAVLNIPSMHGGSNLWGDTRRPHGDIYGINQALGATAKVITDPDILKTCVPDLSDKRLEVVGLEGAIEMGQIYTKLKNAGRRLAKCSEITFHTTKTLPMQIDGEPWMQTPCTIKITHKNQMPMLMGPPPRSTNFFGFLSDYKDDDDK

| SMILES | IC50 |
| --- | --- |
| COCCNc1cc2c(cc1C)c(N1CCC(c3nc4cc(C)ccc4o3)CC1)c(C#N)c(=O)n2C [Example 547, 7-[(2-methoxyethyl)amino]-1,6-dimethyl-4-[4-(5-methyl-1,3-benzoxazol-2-yl)piperidin-1-yl]-2-oxo-1,2-dihydroquinoline-3-carbonitrile] | 0.6 nM |
| Cn1c(=O)c(C#N)c(N2CCC(c3nc4ccccc4s3)CC2)c2cccc(F)c21 [Example 154, 4-[4-(1,3-benzothiazol-2-yl)piperidin-1-yl]-8-fluoro-1-methyl-2-oxo-1,2-dihydroquinoline-3-carbonitrile] | 34 nM |
| Cc1ccc2oc(C3(C)CCN(c4c(C#N)c(=O)n(C)c5ccc(C)cc45)CC3)nc2c1 [Example 187, 1,6-dimethyl-4-[4-methyl-4-(5-methyl-1,3-benzoxazol-2-yl)piperidin-1-yl]-2-oxo-1,2-dihydroquinoline-3-carbonitrile] | 2 nM |
| Cn1c(=O)c(C(N)=O)c(N2CCC(c3nc4ccccc4o3)CC2)c2ccc(N3CCCC3=O)cc21 [Example 318, 4-[4-(1,3-benzoxazol-2-yl)piperidin-1-yl]-1-methyl-2-oxo-7-(2-oxopyrrolidin-1-yl)-1,2-dihydroquinoline-3-carboxamide] | 48 nM |
| Cc1ccc2oc(C3CCN(c4c(C#N)c(=O)n(C)c5ccccc45)CC3)nc2c1 [Example 5, 1-methyl-4-[4-(5-methyl-1,3-benzoxazol-2-yl)piperidin-1-yl]-2-oxo-1,2-dihydroquinoline-3-carbonitrile] | 1.6 nM |
| COC1(c2nc3ccccc3o2)CCN(c2c(C(N)=O)c(=O)n(C)c3ccccc23)CC1 [Example 489, 4-[4-(1,3-benzoxazol-2-yl)-4-methoxypiperidin-1-yl]-1-methyl-2-oxo-1,2-dihydroquinoline-3-carboxamide] | 7.5 nM |
| Cc1ccc2oc(C3CCN(c4c(C(N)=O)c(=O)n(C)c5ccc(P(C)(C)=O)cc45)CC3)nc2c1 [Example 453, 6-(dimethylphosphoryl)-1-methyl-4-[4-(5-methyl-1,3-benzoxazol-2-yl)piperidin-1-yl]-2-oxo-1,2-dihydroquinoline-3-carboxamide] | 598 nM |
| Cn1c(=O)c(C#N)c(N2CCC(c3ccccc3)CC2)c2ccc(Br)cc21 [Example 90, 7-bromo-1-methyl-2-oxo-4-(4-phenylpiperidin-1-yl)-1,2-dihydroquinoline-3-carbonitrile] | 5.5 nM |
| COc1ccc(C2CCN(c3c(C#N)c(=O)n(C)c4c(F)cccc34)CC2)cc1 [Example 153, 8-fluoro-4-[4-(4-methoxyphenyl)piperidin-1-yl]-1-methyl-2-oxo-1,2-dihydroquinoline-3-carbonitrile] | 45 nM |
| Cc1ccc2oc(C3CCN(c4c(C#N)c(=O)n(C)c5cc(O)c(C)cc45)CC3)nc2c1 [Example 428, 7-hydroxy-1,6-dimethyl-4-[4-(5-methyl-1,3-benzoxazol-2-yl)piperidin-1-yl]-2-oxo-1,2-dihydroquinoline-3-carbonitrile] | 0.6 nM |
| Cc1ccc2oc(C3CCN(c4c(C#N)c(=O)n(C)c5cc(OCC6CCOC6)c(Cl)cc45)CC3)nc2c1 (racemic) [Example 572, (rac)-6-chloro-1-methyl-4-[4-(5-methyl-1,3-benzoxazol-2-yl)piperidin-1-yl]-2-oxo-7-[(oxolan-3-yl)methoxy]-1,2-dihydroquinoline-3-carbonitrile] | 1.5 nM |
| Cn1c(=O)c(C#N)c(N2CCC(c3ccc(S(C)(=O)=O)cc3)CC2)c2ccccc21 [Example 65, 4-{4-[4-(methanesulfonyl)phenyl]piperidin-1-yl}-1-methyl-2-oxo-1,2-dihydroquinoline-3-carbonitrile] | 74 nM |
| COc1cccc(-c2csc(C3CCN(c4c(C(N)=O)c(=O)n(C)c5ccccc45)CC3)n2)c1 [Example 476, 4-{4-[4-(3-methoxyphenyl)-1,3-thiazol-2-yl]piperidin-1-yl}-1-methyl-2-oxo-1,2-dihydroquinoline-3-carboxamide] | 7.1 nM |
| Cn1c(=O)c(C#N)c(N2CCC(c3nc4ccccc4s3)CC2)c2cc(C3CC3)ccc21 [Example 276, 4-[4-(1,3-benzothiazol-2-yl)piperidin-1-yl]-6-cyclopropyl-1-methyl-2-oxo-1,2-dihydroquinoline-3-carbonitrile] | 216 nM |
| Cc1ccc2oc(C3(C)CCN(c4c(C#N)c(=O)n(C)c5cc(Br)ccc45)CC3)nc2c1 [Example 110, 7-bromo-1-methyl-4-[4-methyl-4-(5-methyl-1,3-benzoxazol-2-yl)piperidin-1-yl]-2-oxo-1,2-dihydroquinoline-3-carbonitrile] | 2.6 nM |
| Cn1c(=O)c(C#N)c(N2CCC(c3cc[nH]n3)CC2)c2ccccc21 [Example 322, 1-methyl-2-oxo-4-[4-(1H-pyrazol-3-yl)piperidin-1-yl]-1,2-dihydroquinoline-3-carbonitrile] | 239 nM |
| Cn1nccc1C1CCN(c2c(C#N)c(=O)n(C)c3ccccc23)CC1 [Example 149, 1-methyl-4-[4-(1-methyl-1H-pyrazol-5-yl)piperidin-1-yl]-2-oxo-1,2-dihydroquinoline-3-carbonitrile] | 1100 nM |
| COc1ccc2c(c1)c(N1CCC(c3nc(-c4ccccc4)no3)CC1)c(C(N)=O)c(=O)n2C [Example 521, 6-methoxy-1-methyl-2-oxo-4-[4-(3-phenyl-1,2,4-oxadiazol-5-yl)piperidin-1-yl]-1,2-dihydroquinoline-3-carboxamide] | 43 nM |
| Cn1c(=O)c(C#N)c(N2CCC(c3nc4ccccc4o3)CC2)c2cccc(F)c21 [Example 155, 4-[4-(1,3-benzoxazol-2-yl)piperidin-1-yl]-8-fluoro-1-methyl-2-oxo-1,2-dihydroquinoline-3-carbonitrile] | 60 nM |
| Cn1c(=O)c(C(N)=O)c(N2CCC(O)(c3cc4ccccc4s3)CC2)c2ccccc21 [Example 456, 4-[4-(1-benzothiophen-2-yl)-4-hydroxypiperidin-1-yl]-1-methyl-2-oxo-1,2-dihydroquinoline-3-carboxamide] | 41 nM |
| Cn1c(=O)c(C#N)c(N2CCC(c3nc4cc(F)c(F)cc4o3)CC2)c2ccccc21 [Example 22, 4-[4-(5,6-difluoro-1,3-benzoxazol-2-yl)piperidin-1-yl]-1-methyl-2-oxo-1,2-dihydroquinoline-3-carbonitrile] | 6 nM |
| Cn1c(=O)c(C#N)c(N2CCC(c3nc4ccc(Cl)nc4s3)CC2)c2ccccc21 [Example 19, 4-[4-(5-chloro[1,3]thiazolo[5,4-b]pyridin-2-yl)piperidin-1-yl]-1-methyl-2-oxo-1,2-dihydroquinoline-3-carbonitrile] | 15 nM |
| Cc1ccc2oc(C3(C)CCN(c4c(C#N)c(=O)n(C)c5c(C6COC6)cccc45)CC3)nc2c1 [Example 245, 1-methyl-4-[4-methyl-4-(5-methyl-1,3-benzoxazol-2-yl)piperidin-1-yl]-8-(oxetan-3-yl)-2-oxo-1,2-dihydroquinoline-3-carbonitrile] | 5.9 nM |
| Cn1c(=O)c(C#N)c(N2CCC(c3cccc(C(F)F)c3)CC2)c2ccccc21 [Example 87, 4-{4-[3-(difluoromethyl)phenyl]piperidin-1-yl}-1-methyl-2-oxo-1,2-dihydroquinoline-3-carbonitrile] | 7.1 nM |
| Cn1c(=O)c(C#N)c(N2CCC(c3ccc4c(c3)OC(C)(C)O4)CC2)c2ccccc21 [Example 360, 4-[4-(2,2-dimethyl-2H-1,3-benzodioxol-5-yl)piperidin-1-yl]-1-methyl-2-oxo-1,2-dihydroquinoline-3-carbonitrile] | 1.2 nM |
